# Measurements reported in ChEMBL document CHEMBL1201862, “PubChem BioAssay data set” (2004).
#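 Cultured in 96-well plates, cells were exposed to test compound for 48 hours across five concentrations. At the GI50, growth is halved.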 Activity calls are given as the source filed them. Rule as the data show it: active = GI50 up to about 1.1 µM and inactive = higher.
# Assays:
# Test in all cases: NCI-60 cell line screen, 48 h
# A498 = system: A498
# ACHN = system: ACHN
# BT-549 = system: BT-549
# CAKI-1 = system: CAKI-1
# HOP-92 = system: HOP-92
# HT-29 = system: HT-29
# K562 = system: K562
# M14 = system: M14
# Malme-3M = system: Malme-3M
# NCI-H460 = system: NCI-H460
# NCI-H522 = system: NCI-H522
# NCI/ADR-RES = system: NCI/ADR-RES
# OVCAR-3 = system: OVCAR-3
# OVCAR-4 = system: OVCAR-4
# OVCAR-8 = system: OVCAR-8
# RXF 393 = system: RXF 393
# SF-268 = system: SF-268
# SK-MEL-2 = system: SK-MEL-2
# TK-10 = system: TK-10
# NCI-H226 = system: NCI-H226
Compound,GI50 (A498),GI50 (ACHN),GI50 (BT-549),GI50 (CAKI-1),GI50 (HOP-92),GI50 (HT-29),GI50 (K562),GI50 (M14),GI50 (Malme-3M),GI50 (NCI-H460),GI50 (NCI-H522),GI50 (NCI/ADR-RES),GI50 (OVCAR-3),GI50 (OVCAR-4),GI50 (OVCAR-8),GI50 (RXF 393),GI50 (SF-268),GI50 (SK-MEL-2),GI50 (TK-10),GI50 (NCI-H226)
O=C(c1cccs1)N(C(=S)OCCOc1ccccc1)c1ccccc1,25.5 µM (inactive),27.7 µM (inactive),20.8 µM (inactive),27.2 µM (inactive),18.8 µM (inactive),34 µM (inactive),36.1 µM (inactive),17 µM (inactive),31.3 µM (inactive),34.8 µM (inactive),23 µM (inactive),20.9 µM (inactive),21 µM (inactive),29.8 µM (inactive),25.5 µM (inactive),23.6 µM (inactive),34.1 µM (inactive),21.3 µM (inactive),41 µM (inactive),
COC(=O)c1c(CC(Cc2ccc3c(c2)CCCC3)C(=O)OC)ccc2c1CCCC2 (centres undefined),> 100 µM (inactive),45.1 µM (inactive),> 100 µM (inactive),> 100 µM (inactive),23 µM (inactive),24.4 µM (inactive),32.9 µM (inactive),> 100 µM (inactive),38 µM (inactive),88.5 µM (inactive),> 100 µM (inactive),> 100 µM (inactive),> 100 µM (inactive),5.68 µM (inactive),> 100 µM (inactive),60.5 µM (inactive),55.3 µM (inactive),> 100 µM (inactive),> 100 µM (inactive),
Nc1ccn([C@H]2CO[C@@H](CO)[C@@H]2O)c(=O)n1,> 100 µM (inactive),> 100 µM (inactive),> 100 µM (inactive),> 100 µM (inactive),> 100 µM (inactive),> 100 µM (inactive),> 100 µM (inactive),,,> 100 µM (inactive),,> 100 µM (inactive),> 100 µM (inactive),> 100 µM (inactive),,> 100 µM (inactive),> 100 µM (inactive),> 100 µM (inactive),> 100 µM (inactive),> 100 µM (inactive)
CNC(=O)CNC(=O)CCC(=O)N(C)C,> 100 µM (inactive),> 100 µM (inactive),> 100 µM (inactive),> 100 µM (inactive),> 100 µM (inactive),> 100 µM (inactive),> 100 µM (inactive),> 100 µM (inactive),> 100 µM (inactive),> 100 µM (inactive),> 100 µM (inactive),> 100 µM (inactive),> 100 µM (inactive),,> 100 µM (inactive),,> 100 µM (inactive),> 100 µM (inactive),> 100 µM (inactive),> 100 µM (inactive)
CC1=C2C(=O)NN=C2CCN1c1ccc(Br)cc1,68.7 µM (inactive),> 100 µM (inactive),3.14 µM (inactive),> 100 µM (inactive),> 100 µM (inactive),> 100 µM (inactive),,> 100 µM (inactive),35.3 µM (inactive),> 100 µM (inactive),> 100 µM (inactive),> 100 µM (inactive),> 100 µM (inactive),> 100 µM (inactive),> 100 µM (inactive),,> 100 µM (inactive),> 100 µM (inactive),> 100 µM (inactive),> 100 µM (inactive)
O=C(O)c1ccccc1/C=C1\Cc2ccccc2C1=O,> 100 µM (inactive),> 100 µM (inactive),19.3 µM (inactive),> 100 µM (inactive),,38.2 µM (inactive),> 100 µM (inactive),> 100 µM (inactive),> 100 µM (inactive),> 100 µM (inactive),> 100 µM (inactive),> 100 µM (inactive),> 100 µM (inactive),> 100 µM (inactive),> 100 µM (inactive),> 100 µM (inactive),> 100 µM (inactive),67.1 µM (inactive),> 100 µM (inactive),> 100 µM (inactive)
CSc1ccc(/C=C/C(=O)c2nc3ccccc3[nH]2)cc1,13.6 µM (inactive),18.9 µM (inactive),14.8 µM (inactive),2.26 µM (inactive),77.1 µM (inactive),15.7 µM (inactive),4.41 µM (inactive),15.9 µM (inactive),44.7 µM (inactive),18.4 µM (inactive),12.2 µM (inactive),20.1 µM (inactive),16.6 µM (inactive),14.1 µM (inactive),37.2 µM (inactive),,26.9 µM (inactive),18.1 µM (inactive),3.58 µM (inactive),13.6 µM (inactive)
CCOC(=O)c1nnsc1NC(=O)NCCCCCCn1c(=O)n(CCCCCCNC(=O)Nc2snnc2C(=O)OCC)c(=O)n(CCCCCCNC(=O)Nc2snnc2C(=O)OCC)c1=O,67.1 µM (inactive),47 µM (inactive),33 µM (inactive),76.9 µM (inactive),,> 100 µM (inactive),66.4 µM (inactive),> 100 µM (inactive),25.1 µM (inactive),21.5 µM (inactive),,> 100 µM (inactive),57.8 µM (inactive),80 µM (inactive),35.8 µM (inactive),13.5 µM (inactive),19.8 µM (inactive),> 100 µM (inactive),,18.1 µM (inactive)
CCOC(=O)C(=O)C(=O)NN(C)C1=NCCN1,,> 100 µM (inactive),> 100 µM (inactive),,> 100 µM (inactive),> 100 µM (inactive),> 100 µM (inactive),> 100 µM (inactive),> 100 µM (inactive),> 100 µM (inactive),> 100 µM (inactive),> 100 µM (inactive),> 100 µM (inactive),> 100 µM (inactive),> 100 µM (inactive),> 100 µM (inactive),> 100 µM (inactive),> 100 µM (inactive),> 100 µM (inactive),> 100 µM (inactive)
O=C1C=C(Br)c2c(Br)sc(Br)c21,,4.62 µM (inactive),6.76 µM (inactive),12 µM (inactive),3 µM (inactive),13.5 µM (inactive),4.67 µM (inactive),4.54 µM (inactive),18.6 µM (inactive),19.6 µM (inactive),2.07 µM (inactive),12.6 µM (inactive),13.4 µM (inactive),18 µM (inactive),3.9 µM (inactive),8.18 µM (inactive),18.5 µM (inactive),20.7 µM (inactive),6.87 µM (inactive),32.5 µM (inactive)
COCN1C(=O)[C@@H]2C[C@@H](OC/C=C/CBr)CN2C(=O)c2ccccc21,26.1 µM (inactive),19.9 µM (inactive),26.7 µM (inactive),17.4 µM (inactive),,20.2 µM (inactive),,16.1 µM (inactive),15.6 µM (inactive),,5.68 µM (inactive),26.9 µM (inactive),,14.6 µM (inactive),14.5 µM (inactive),14 µM (inactive),25.1 µM (inactive),29.7 µM (inactive),19.3 µM (inactive),9.38 µM (inactive)
Nn1c(Cc2ccc([N+](=O)[O-])cc2)n[nH]c1=O,,> 100 µM (inactive),> 100 µM (inactive),> 100 µM (inactive),> 100 µM (inactive),> 100 µM (inactive),> 100 µM (inactive),> 100 µM (inactive),> 100 µM (inactive),> 100 µM (inactive),> 100 µM (inactive),> 100 µM (inactive),> 100 µM (inactive),> 100 µM (inactive),> 100 µM (inactive),,> 100 µM (inactive),> 100 µM (inactive),,> 100 µM (inactive)
CC1(O)C(=O)OC2CC([C@]3(O)CCC4[C@@H]5C[C@H]6O[C@]67[C@@H](O)C=CC(=O)[C@]7(C)C5CC[C@@]43C)C1(C)C2 (some centres undefined),31.3 µM (inactive),18.8 µM (inactive),6.68 µM (inactive),11.8 µM (inactive),3.44 µM (inactive),17.1 µM (inactive),3.6 µM (inactive),12.6 µM (inactive),3.76 µM (inactive),30.5 µM (inactive),1.82 µM (inactive),> 50.9 µM (inactive),15.8 µM (inactive),12.1 µM (inactive),25.1 µM (inactive),3.63 µM (inactive),16 µM (inactive),13.8 µM (inactive),8.73 µM (inactive),
CCCCCCNC(=O)c1cc(C#Cc2cc(OC)ccc2OC)ccc1OC,> 100 µM (inactive),> 100 µM (inactive),18.9 µM (inactive),> 100 µM (inactive),9.77 µM (inactive),7.53 µM (inactive),3.92 µM (inactive),17.5 µM (inactive),,8.73 µM (inactive),6.15 µM (inactive),47.8 µM (inactive),,> 100 µM (inactive),> 100 µM (inactive),,> 100 µM (inactive),> 100 µM (inactive),> 100 µM (inactive),
O=Nc1c(-c2c(O)[nH]c3ccccc23)[nH]c2ccccc12 [INDIRUBIN-3-MONOXIME],2.29 µM (inactive),1.94 µM (inactive),8.11 µM (inactive),0.64 µM (active),8.77 µM (inactive),7.14 µM (inactive),2.67 µM (inactive),5.61 µM (inactive),3.89 µM (inactive),3.53 µM (inactive),3.48 µM (inactive),5.77 µM (inactive),3.88 µM (inactive),5.08 µM (inactive),4.45 µM (inactive),1.93 µM (inactive),5.5 µM (inactive),1.91 µM (inactive),5.79 µM (inactive),
